Measurements taken from PubChem BioAssay (NCI).
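Following 48 hours of exposure in 96-well plates, responses at five concentrations were used to interpolate endpoints linearly. GI50 marks 50% less growth. TGI: concentration producing complete growth inhibition.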

Legend:
Experiment in all cases: growth of human tumour cells (NCI), 48 h
MCF7 breast = tested on: MCF7 breast
UACC-257 melanoma = tested on: UACC-257 melanoma
EKVX NSCLC = tested on: EKVX NSCLC
ACHN renal = tested on: ACHN renal
SN12C renal = tested on: SN12C renal
SF-268 CNS = tested on: SF-268 CNS
IGROV1 ovarian = tested on: IGROV1 ovarian
SNB-19 CNS = tested on: SNB-19 CNS
T-47D breast = tested on: T-47D breast
HS 578T breast = tested on: HS 578T breast
SK-MEL-2 melanoma = tested on: SK-MEL-2 melanoma
OVCAR-4 ovarian = tested on: OVCAR-4 ovarian
TK-10 renal = tested on: TK-10 renal
NCI-H522 lung = tested on: NCI-H522 lung
SF-539 CNS = tested on: SF-539 CNS
HCT-116 colon = tested on: HCT-116 colon
SR leukemia = tested on: SR leukemia
OVCAR-5 ovarian = tested on: OVCAR-5 ovarian
A498 renal = tested on: A498 renal
HT29 colon = tested on: HT29 colon
SW-620 colon = tested on: SW-620 colon
M14 melanoma = tested on: M14 melanoma
HCT-15 colon = tested on: HCT-15 colon
K-562 leukemia = tested on: K-562 leukemia
HL-60(TB) leukemia = tested on: HL-60(TB) leukemia
NCI-H226 lung = tested on: NCI-H226 lung
HCC-2998 colon = tested on: HCC-2998 colon
MDA-MB-435 = tested on: MDA-MB-435
HOP-62 NSCLC = tested on: HOP-62 NSCLC
DU-145 prostate = tested on: DU-145 prostate
SK-OV-3 ovarian = tested on: SK-OV-3 ovarian
NCI-H23 lung = tested on: NCI-H23 lung
CCRF-CEM leukemia = tested on: CCRF-CEM leukemia
PC-3 prostate = tested on: PC-3 prostate
A549 NSCLC = tested on: A549 NSCLC
MOLT-4 leukemia = tested on: MOLT-4 leukemia
SNB-75 CNS = tested on: SNB-75 CNS
COLO 205 colon = tested on: COLO 205 colon
RXF 393 renal = tested on: RXF 393 renal
SF-295 CNS = tested on: SF-295 CNS
NCI/ADR-RES ovarian = tested on: NCI/ADR-RES ovarian
UO-31 renal = tested on: UO-31 renal
HOP-92 NSCLC = tested on: HOP-92 NSCLC
KM12 colon = tested on: KM12 colon
MDA-MB-231 breast = tested on: MDA-MB-231 breast
BT-549 breast = tested on: BT-549 breast
786-0 renal = tested on: 786-0 renal
OVCAR-3 ovarian = tested on: OVCAR-3 ovarian
NCI-H460 lung = tested on: NCI-H460 lung
LOX IMVI melanoma = tested on: LOX IMVI melanoma
U251 CNS = tested on: U251 CNS
RPMI-8226 leukemia = tested on: RPMI-8226 leukemia
CAKI-1 renal = tested on: CAKI-1 renal
SK-MEL-28 melanoma = tested on: SK-MEL-28 melanoma
OVCAR-8 ovarian = tested on: OVCAR-8 ovarian

Cc1cc(=O)[nH]c(N/N=C/c2cc(Br)ccc2O)n1
GI50 (MCF7 breast): 0.318 µM | TGI (MCF7 breast): 16.6 µM | GI50 (UACC-257 melanoma): 0.383 µM | TGI (UACC-257 melanoma): 9.12 µM | GI50 (EKVX NSCLC): 1.82 µM | TGI (EKVX NSCLC): 7.67 µM | GI50 (ACHN renal): 0.927 µM | TGI (ACHN renal): > 100 µM | GI50 (SN12C renal): 0.809 µM | TGI (SN12C renal): > 100 µM | GI50 (SF-268 CNS): 0.728 µM | TGI (SF-268 CNS): > 100 µM | GI50 (IGROV1 ovarian): 0.257 µM | TGI (IGROV1 ovarian): 0.706 µM | GI50 (SNB-19 CNS): 3.56 µM | TGI (SNB-19 CNS): > 100 µM | GI50 (T-47D breast): 0.437 µM | TGI (T-47D breast): 56.7 µM | GI50 (HS 578T breast): 7.1 µM | TGI (HS 578T breast): > 100 µM | GI50 (SK-MEL-2 melanoma): 49.3 µM | TGI (SK-MEL-2 melanoma): > 100 µM | GI50 (OVCAR-4 ovarian): 0.383 µM | TGI (OVCAR-4 ovarian): 33.8 µM | GI50 (TK-10 renal): 21.5 µM | TGI (TK-10 renal): > 100 µM | GI50 (NCI-H522 lung): 3.37 µM | TGI (NCI-H522 lung): 22 µM | GI50 (SF-539 CNS): 2.78 µM | TGI (SF-539 CNS): 39 µM | GI50 (HCT-116 colon): 0.353 µM | TGI (HCT-116 colon): > 100 µM | GI50 (SR leukemia): 0.896 µM | TGI (SR leukemia): > 100 µM | GI50 (OVCAR-5 ovarian): 5.07 µM | TGI (OVCAR-5 ovarian): > 100 µM | GI50 (A498 renal): 4.06 µM | TGI (A498 renal): 25.4 µM | GI50 (HT29 colon): 13.3 µM | TGI (HT29 colon): > 100 µM | GI50 (SW-620 colon): 0.488 µM | TGI (SW-620 colon): > 100 µM | GI50 (M14 melanoma): 0.53 µM | TGI (M14 melanoma): > 100 µM | GI50 (HCT-15 colon): 0.606 µM | TGI (HCT-15 colon): > 100 µM | GI50 (K-562 leukemia): 0.605 µM | TGI (K-562 leukemia): > 100 µM | GI50 (HL-60(TB) leukemia): 0.446 µM | TGI (HL-60(TB) leukemia): 5.68 µM | GI50 (NCI-H226 lung): 2.1 µM | TGI (NCI-H226 lung): > 100 µM | GI50 (HCC-2998 colon): 1.85 µM | TGI (HCC-2998 colon): > 100 µM | GI50 (MDA-MB-435): 1.77 µM | TGI (MDA-MB-435): 81.5 µM | GI50 (HOP-62 NSCLC): 1.41 µM | TGI (HOP-62 NSCLC): > 100 µM | GI50 (DU-145 prostate): 1.78 µM | TGI (DU-145 prostate): > 100 µM | GI50 (SK-OV-3 ovarian): 1.34 µM | TGI (SK-OV-3 ovarian): > 100 µM | GI50 (NCI-H23 lung): 0.481 µM | TGI (NCI-H23 lung): > 100 µM | GI50 (CCRF-CEM leukemia): 0.441 µM | TGI (CCRF-CEM leukemia): > 100 µM | GI50 (PC-3 prostate): 0.698 µM | TGI (PC-3 prostate): > 100 µM | GI50 (A549 NSCLC): 1.84 µM | TGI (A549 NSCLC): > 100 µM | GI50 (MOLT-4 leukemia): 0.432 µM | TGI (MOLT-4 leukemia): 15.5 µM | GI50 (SNB-75 CNS): 3.33 µM | TGI (SNB-75 CNS): > 100 µM | GI50 (COLO 205 colon): 3.45 µM | TGI (COLO 205 colon): 32.5 µM | GI50 (RXF 393 renal): 3.35 µM | TGI (RXF 393 renal): > 100 µM | GI50 (SF-295 CNS): 0.193 µM | TGI (SF-295 CNS): 0.568 µM | GI50 (NCI/ADR-RES ovarian): 0.35 µM | TGI (NCI/ADR-RES ovarian): > 100 µM | GI50 (UO-31 renal): 0.435 µM | TGI (UO-31 renal): 3.21 µM | GI50 (HOP-92 NSCLC): 19.3 µM | TGI (HOP-92 NSCLC): > 100 µM | GI50 (KM12 colon): 0.869 µM | TGI (KM12 colon): > 100 µM | GI50 (MDA-MB-231 breast): 0.976 µM | TGI (MDA-MB-231 breast): > 100 µM | GI50 (BT-549 breast): 11 µM | TGI (BT-549 breast): > 100 µM | GI50 (786-0 renal): 2.35 µM | TGI (786-0 renal): > 100 µM | GI50 (OVCAR-3 ovarian): 0.34 µM | TGI (OVCAR-3 ovarian): 38.6 µM | GI50 (NCI-H460 lung): 0.488 µM | TGI (NCI-H460 lung): 20.5 µM | GI50 (LOX IMVI melanoma): 0.634 µM | TGI (LOX IMVI melanoma): > 100 µM | GI50 (U251 CNS): 0.808 µM | TGI (U251 CNS): > 100 µM | GI50 (RPMI-8226 leukemia): 0.843 µM | TGI (RPMI-8226 leukemia): > 100 µM | GI50 (CAKI-1 renal): 1.44 µM | TGI (CAKI-1 renal): 4.89 µM | GI50 (SK-MEL-28 melanoma): 4.55 µM | TGI (SK-MEL-28 melanoma): > 100 µM | GI50 (OVCAR-8 ovarian): 0.369 µM | TGI (OVCAR-8 ovarian): 35.6 µM
